Measurements reported in the supplement of paper PMC10307832.

Assays:
Experiment in all cases: relative viability (nuclei count vs DMSO), 5 days (fraction); higher = more cells survive
XMD14-99 + Dasatinib = compound: CN1CCN(CC1)C2=CC(=C(C=C2)NC3=NC(=C(S3)C(=O)C4=C(C=CC=C4Cl)Cl)N)OC [XMD14-99] + Cc1nc(Nc2ncc(C(=O)Nc3c(C)cccc3Cl)s2)cc(N2CCN(CCO)CC2)n1 [Dasatinib] (partner 0.075 µM)
Procedure, shortened: (§1)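 Medians of duplicate plates are given as relative viability. That measure is the nuclei count in treated wells divided by the count in vehicle wells. Counts were taken on 4× images of lung cancer cell lines in 1536-well plates, 5 days after pin-tool dosing the day after seeding with one drug alone or a fixed anchor-drug dose plus five library-drug doses (not always all listed) in √10 steps.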

XMD14-99 + Luminespib = compound: CN1CCN(CC1)C2=CC(=C(C=C2)NC3=NC(=C(S3)C(=O)C4=C(C=CC=C4Cl)Cl)N)OC [XMD14-99] + CCNC(=O)c1noc(-c2cc(C(C)C)c(O)cc2O)c1-c1ccc(CN2CCOCC2)cc1 [Luminespib] (partner 0.01 µM)
Procedure, shortened: as §1

XMD14-99 + Bortezomib = compound: CN1CCN(CC1)C2=CC(=C(C=C2)NC3=NC(=C(S3)C(=O)C4=C(C=CC=C4Cl)Cl)N)OC [XMD14-99] + CC(C)C[C@H](NC(=O)[C@H](Cc1ccccc1)NC(=O)c1cnccn1)B(O)O [Bortezomib] (partner 0.002 µM)
Procedure, shortened: as §1

AZD1208 + Lapatinib = compound: N[C@@H]1CCCN(c2c(/C=C3\SC(=O)NC3=O)cccc2-c2ccccc2)C1 [AZD1208] + CS(=O)(=O)CCNCc1ccc(-c2ccc3ncnc(Nc4ccc(OCc5cccc(F)c5)c(Cl)c4)c3c2)o1 [Lapatinib] (partner 2 µM)
Procedure, shortened: as §1

UMC-11
relative viability (XMD14-99 + Dasatinib; first compound 0.08 µM): 0.441 | relative viability (XMD14-99 + Dasatinib; first compound 0.8 µM): 0.478 | relative viability (XMD14-99 + Dasatinib; first compound 2.53 µM): 0.438 | relative viability (XMD14-99 + Dasatinib; first compound 8 µM): 0.344 | relative viability (XMD14-99 + Luminespib; first compound 0.08 µM): 0.98 | relative viability (XMD14-99 + Luminespib; first compound 0.8 µM): 1.05 | relative viability (XMD14-99 + Luminespib; first compound 2.53 µM): 0.98 | relative viability (XMD14-99 + Luminespib; first compound 8 µM): 0.828 | relative viability (XMD14-99 + Bortezomib; first compound 0.08 µM): 0.701 | relative viability (XMD14-99 + Bortezomib; first compound 0.8 µM): 0.775 | relative viability (XMD14-99 + Bortezomib; first compound 2.53 µM): 0.673 | relative viability (XMD14-99 + Bortezomib; first compound 8 µM): 0.526 | relative viability (AZD1208 + Lapatinib; first compound 0.08 µM): 0.819 | relative viability (AZD1208 + Lapatinib; first compound 0.253 µM): 0.739 | relative viability (AZD1208 + Lapatinib; first compound 0.8 µM): 0.679 | relative viability (AZD1208 + Lapatinib; first compound 2.53 µM): 0.487 | relative viability (AZD1208 + Lapatinib; first compound 8 µM): 0.466
